What is called AUC(0-t) is exposure summed from dosing to a finite time, without extrapolation to infinity. Low readings indicate low exposure, high ones high exposure. The term Cmax denotes the highest concentration seen after dosing.

Data set [1] has as its system isolated rat soleus muscles. Put plainly: Recovery of nerve-stimulated force in isolated rat soleus muscles at elevated extracellular Mg2+ (3.5 mM). In kind it is cell-based. The note with it: muscle at elevated Mg2+ (3.5 mM); FIG. 2B. How it is done:
(§1) Experiments were performed using rat soleus muscles from either young (4-wk-old) or adult Wistar rats (12-14-week-old). Animal handling, killing and isolation of muscle is described elsewhere^26 All experiments were performed using normal Krebs-Ringer bicarbonate solution^26 (NKR). In solutions with elevated Mg^2+, MgCl2 was added to NKR-solution causing minor increases in osmolarity and ionic strength. In solutions with elevated K^+, 4 mM NaCl was replaced by 4 mM KCl in the NKR.
In all contraction experiments, isometric force production was determined and force produced during contractions was quantified by measuring the integral of the force response (AUC). Stimulation and force recordings have been described elsewhere^26. […] In these latter experiments, extracellular recordings of action potentials (M-waves) could be measured without temporal overlap with stimulation artefacts. […]
The next series of experiments determined whether the compounds that recovered nerve-stimulated force in the presence of tubocurarine could also recover nerve-stimulated force at elevated extracellular Mg^2+.

The subject of data set [2] is isolated rat soleus muscles. Put plainly: Recovery of nerve-stimulated force in isolated rat soleus muscles exposed to sub-maximal tubocurarine. The data set is classed as cell-based. As to the method:
as §1
In all contraction experiments, isometric force production was determined and force produced during contractions was quantified by measuring the integral of the force response (AUC). Stimulation and force recordings have been described elsewhere^26. […] In these latter experiments, extracellular recordings of action potentials (M-waves) could be measured without temporal overlap with stimulation artefacts.
To initially confirm that inhibition of ClC-1 ion channels can be used to recover contractile force in muscle with reduced neuromuscular transmission, isolated nerve-muscle preparations were first exposed to either tubocurarine (FIG. 2A) or elevated Mg^2+ (FIG. 2B) and then a specific ClC-1 inhibitor (9-AC) was added. […]

Data set [3] in a line: Pharmacokinetic analysis of a single I.P. dose in rats. The note with it: rat, ip, single I.P. dose 10 mg/kg, Sprague-Dawley rats, plasma. The data set is classed as in vivo. How it is done: This part of the study was performed by Pipeline Biotech A/S (Spørring, Denmark). […] Plasma concentrations (free and bound) were determined by OnTarget Chemistry (Uppsala, Sweden, Project No.: PB243-001).
Before conducting in vivo experiments with animal models of myasthenia gravis, some pharmacokinetic details were obtained for C8 in response to one-bolus I.P. injection.

The next data set has as its system rat soleus muscles. In kind it is cell-based. Conditions: 10 and 25 μM, compared to control conditions; 1 μM μ-conotoxin GiiiB.
The test system of another data set is isolated human muscles. The data set is classed as cell-based. The note with it: 150 μM C8; elevated K+ and TTX.
Data set [4] has as its system rats injected with tubocurarine. Put plainly: Rotarod running performance of rats after I.P. tubocurarine (myasthenia like phenotype). The data set is classed as in vivo, rat. Conditions: C8 20 mg/kg I.P. 2 hrs before tubocurarine 0.13 mg/kg I.P.; tested 21 minutes after tubocurarine; sham around 2%. How it is done: FIG. 9. […] A) illustrates the design of the experiments. Prior to Day One the animals had been familiarized to the rotarod in three training sessions distributed over two days.
(§2) In both series of experiments, running performance was tested on a rotarod using a protocol where the rod was accelerated gradually over a 5 min period, and the running time and covered distance before falling off the rod were measured.
Experiments with tubocurarine were carried out over two days, and on each day the effect of tubocurarine on running performance was tested. On the first day only tubocurarine was injected. […] On the second day, the animals were first allowed to run on the rotarod, and all animals performed normally. […] The allocation of the animals into the two groups (C8 or sham) was random and unknown to the experimenter (blinded experimental design).
In the first series of in vivo experiments, myasthenia gravis was simply mimicked by I.P. injection of tubocurarine (0.13 mg/kg) in animals that had been familiarized to running on the rotarod. On the first of two consecutive days, tubocurarine was injected I.P. and the running performance of the animal was tested 21 minutes after this injection. On the second day of experimentation, the animals first performed a test run to ensure that they were no longer affected by the tubocurarine injected the day before. […]
On the technique in general: Falling from the rotarod earlier than controls is read as motor impairment.

A further data set concerns soleus muscles. As to the kind of experiment: Mg2+ concentration required to depress nerve-stimulated force by 50% (Kd,Mg2+), combination treatments. The data set is classed as cell-based, rat. The note with it: C8 combined with 3,4-diaminopyridine. How it is done:
FIG. 6. […] Muscles from 4-week-old rats were stimulated to contract by activating the motor nerve with short duration pulses in field stimulation. Muscles contracted every 10 min for 2 s in response to 30 Hz stimulation. Four different experimental conditions were used. […] C) similar to A) but this muscle had been pre-incubated with 3,4-AP. […] The force integral (AUC) was determined at each extracellular Mg^2+ concentration. AUC was plotted against Mg^2+ concentration and the data was fitted to a sigmoidal function (FIG. 6E). This provided the extracellular Mg^2+ concentration that was required to reduce the nerve-stimulated force to 50% (Mg50) under the four different conditions (see Table 5).
While the use of tubocurarine mimics conditions with reduced neuromuscular transmission due to post-synaptic dysfunction (myasthenia gravis, neuromuscular blockade), the experiments with elevated extracellular Mg^2+ mimics conditions with pre-synaptic dysfunction akin to a range of neuromuscular disorders including Lambert Eaton syndrome^26, motor neuron disorders^6-9 and polyneuropathy^18, 19. […] Based on this it was determined whether recovery of nerve-stimulated force at elevated extracellular Mg^2+ with ClC-1 inhibiting compounds could be added to force recovery with 3,4-AP. […] To quantify the effect of compounds on Mg^2+ sensitivity the force at the different Mg^2+ concentrations was determined. […]

Data set [5] concerns rats injected with MAB35 monoclonal antibody. As to the kind of experiment: Rotarod running performance in passive immunization model of myasthenia gravis (MAB35). In kind it is in vivo, rat. Conditions: compared to sham. As to the method:
FIG. 10. […] Prior to I.P. injection of MAB35 the animals had been familiarized to the rotarod over three training sessions distributed over two days. […] After this treatment performance was monitored every second hour. *Indicates significant different as evaluated using student t-test.
as §2
In experiments with MAB35, animals were first familiarized with the rotarod over two consecutive days and then injected I.P. with MAB35. After injection, rotarod performance was then again monitored regularly over the consecutive two days. […] A considerable number of animals, however, became moribund failing to walk and they had altered ventilation (rapid) and pronounced ptosis. These animals were not included in experiments.
In the last series of experiments, myasthenia gravis was mimicked in rats by inducing an immunological reaction against the motor endplate of muscle fibers using monoclonal antibody against the nicotinic ACh receptor in muscle fibers. Again the animals had been familiarized to the rotarod before the MAB35 injection. […] From FIG. 10 it can be seen that upon injection sham treatment the performance further declined.

Structures are written as SMILES.

As to `O=C(O)c1c2ccccc2cc2ccccc12` [Compound 9-AC, reference compound], the “recovery of force and M-wave signal” value is “marked recovery of both force and M-wave signal” in data set [1]; “marked recovery of both force and M-wave signal” in data set [2] (muscle exposed to tubocurarine, FIG. 2A).

In data set [3], `C[C@H](Oc1ccc(Br)cc1)C(=O)O` [Compound C8, (2S)-2-(4-bromophenoxy)propanoic acid] had an AUC(0-t) of 204 µg·h/mL, a C0 of 24500 ng/mL and a Cmax of 44600 ng/mL. Also, in data set [3] (read-out: AUC 0-inf_obs), the AUC(0-inf) worked out at 205 µg·h/mL. In addition, the half-life in data set [3] (read-out: t½ (converted)) is 222 min. Further, the EPP amplitude entry in the data set with rat soleus muscles is reported as “significantly larger EPPs”. In addition, in the data set with isolated human muscles, the contractile force result is “markedly recovery”. In data set [4], the “increase in running distance on second day compared to first day” value is recorded as “around 150%”. Further, in data set [2] (50 μM added after 40 min in tubocurarine, FIG. 3A), the “nerve-stimulated force after addition of compound (in words)” value is reported as “recovered markedly”. Besides, in the data set with soleus muscles, the “effect of combination on recovery of neuromuscular transmission” value is listed as “unexpected synergistic effect”. Besides, the “rotarod running performance after injection” value in data set [5] (20 mg/kg C8 I.P.) is “decline was reduced”. Besides, the “rotarod running performance after injection” value in data set [5] (30 mg/kg C8 I.P.) is “clear recovery of performance”.
